Tests used:
[1] = system: recombinant NL4-3 virus (nef section replaced with Renilla luciferase gene) in MT-2 cells; assay: HIV cell culture assay (antiviral activity, luciferase readout); assay type: cell-based; details: serial dilutions of compound
In short: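 Test compound in serial dilution was present while MT-2 cells were infected for 4–5 days with recombinant NL4-3 virus made in 293T cells. Antiviral activity was quantified as Renilla luciferase activity, read with a live-cell substrate. EC50 came from the median-effect equation.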

[2] = Compound cytotoxicity, XTT-based colorimetric assay; assay type: cell-based; details: human, uninfected MT2 cells, day 4, XTT
In short: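 Run under the antiviral-assay protocol but without virus. Viability was read on day 4 and CC50 values were derived from the readout.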

[3] = Renilla, NL43, MT-2 cells infected for 4-5 days with recombinant NL4-3 Renilla luciferase virus
[4] = MT-2 cells infected for 4-5 days with recombinant NL4-3 Renilla luciferase virus

Compound: COc1cc(C)nc(-c2ccc3c(=O)n(-c4ccc(Cl)c5c(NS(C)(=O)=O)nn(C)c45)c([C@H](Cc4cc(F)cc(F)c4)NC(=O)Cn4nc(C(F)F)c5c4C(F)(F)[C@@H]4C[C@H]54)nc3c2)n1 (atropisomer, axis not shown; (aR)) [Example 131, N-((S)-1-(3-(4-chloro-1-methyl-3-(methylsulfonamido)-1H-indazol-7-yl)-7-(4-methoxy-6-methylpyrimidin-2-yl)-4-oxo-3,4-dihydroquinazolin-2-yl)-2-(3,5-difluorophenyl)ethyl)-2-((3bS,4aR)-3-(difluoromethyl)-5,5-difluoro-3b,4,4a,5-tetrahydro-1H-cyclopropa[3,4]cyclopenta[1,2-c]pyrazol-1-yl)acetamide]
- EC50 [1, 3]: 0.00011 µM
- CC50 at 4 day [2]: > 0.5 µM

Compound: Cn1nc(NS(C)(=O)=O)c2c(Cl)ccc(-n3c(C(Cc4cc(F)cc(F)c4)NC(=O)Cn4nc(C(F)F)c5c4C(F)(F)[C@@H]4C[C@H]54)nc4cc(-c5ccccc5F)ccc4c3=O)c21 (single isomer, unassigned) [Example 1]
- EC50 [1, 3]: 0.209 µM
- CC50 at 4 day [2]: > 1 µM

Compound: Cn1nc(NS(C)(=O)=O)c2c(Cl)ccc(-n3c([C@H](Cc4cc(F)cc(F)c4)NC(=O)Cn4nc(C(F)F)c5c4C(F)(F)[C@@H]4C[C@H]54)nc4cc(-c5ccccc5F)ccc4c3=O)c21 (single isomer, unassigned) [Example 2]
- EC50 [1, 3]: 0.00053 µM
- CC50 at 4 day [2]: > 1 µM

Compound: Cn1nc(NS(C)(=O)=O)c2c(Cl)ccc(-n3c([C@H](Cc4cc(F)cc(F)c4)NC(=O)Cn4ccc(C5CC5)n4)nc4cc(-c5ccccc5F)ccc4c3=O)c21 (single isomer, unassigned) [Example 3]
- EC50 [1, 4]: 0.0631 µM
- CC50 at 4 day [2]: > 1 µM

Compound: CC(C(=O)N[C@@H](Cc1cc(F)cc(F)c1)c1nc2cc(-c3ccccc3F)ccc2c(=O)n1-c1ccc(Cl)c2c(NS(=O)(=O)C3CC3)nn(CC(F)F)c12)n1ccc(C2CC2)n1 (single isomer, unassigned) [Example 133]
- EC50 [1, 4]: 0.0016 µM
- CC50 at 4 day [2]: > 0.5 µM

Compound: Cc1c(-c2ccc3c(=O)n(-c4ccc(Cl)c5c(NS(C)(=O)=O)nn(C)c45)c([C@H](Cc4cc(F)cc(F)c4)NC(=O)Cn4nc(C(F)F)c5c4C(F)(F)[C@@H]4CC54)nc3c2)cc(F)c2c1CCCO2 (stereo in doubt) [Example 53, N-((S)-1-(3-(4-chloro-1-methyl-3-(methylsulfonamido)-1H-indazol-7-yl)-7-(8-fluoro-5-methylchroman-6-yl)-4-oxo-3,4-dihydroquinazolin-2-yl)-2-(3,5-difluorophenyl)ethyl)-2-((3bS,4aR)-3-(difluoromethyl)-5,5-difluoro-3b,4,4a,5-tetrahydro-1H-cyclopropa[3,4]cyclopenta[1,2-c]pyrazol-1-yl)acetamide]
- EC50 [1, 3]: 0.0021 µM
- CC50 at 4 day [2]: > 1 µM

Compound: CC(C)c1ccc(-n2c([C@H](Cc3cc(F)cc(F)c3)NC(=O)Cn3nc(C(F)F)c4c3C(F)(F)[C@@H]3C[C@H]43)nc3cc(-c4nnn[nH]4)ccc3c2=O)cn1 [Example 7, 2-((3bS,4aR)-3-(difluoromethyl)-5,5-difluoro-3b,4,4a,5-tetrahydro-1H-cyclopropa[3,4]cyclopenta[1,2-c]pyrazol-1-yl)-N-((S)-2-(3,5-difluorophenyl)-1-(3-(6-isopropylpyridin-3-yl)-4-oxo-7-(1H-tetrazol-5-yl)-3,4-dihydroquinazolin-2-yl)ethyl)acetamide]
- EC50 [1, 3]: 4.13 µM
- CC50 at 4 day [2]: > 1 µM

Compound: O=C(Cn1ccc(C2CC2)n1)N[C@@H](Cc1cc(F)cc(F)c1)c1nc2cc(-c3ccc(F)cc3F)ccc2c(=O)n1-c1ccc(S(=O)(=O)N2CCOCC2)cc1 [Example 12, (S)-2-(3-cyclopropyl-1H-pyrazol-1-yl)-N-(2-(3,5-difluorophenyl)-1-(7-(2,4-difluorophenyl)-3-(4-(morpholinosulfonyl)phenyl)-4-oxo-3,4-dihydroquinazolin-2-yl)ethyl)acetamide]
- EC50 [1, 3]: 0.0083 µM
- CC50 at 4 day [2]: > 1 µM

Compound: Cc1cc(Cl)ccc1-c1ccc2c(=O)n(-c3ccc(S(=O)(=O)N4CCOCC4)cc3)c([C@H](Cc3cc(F)cc(F)c3)NC(=O)Cn3nc(C(F)F)c4c3C(F)(F)[C@@H]3C[C@H]43)nc2c1 [Example 15, N-((S)-1-(7-(4-chloro-2-methylphenyl)-3-(4-(morpholinosulfonyl)phenyl)-4-oxo-3,4-dihydroquinazolin-2-yl)-2-(3,5-difluorophenyl)ethyl)-2-((3bS,4aR)-3-(difluoromethyl)-5,5-difluoro-3b,4,4a,5-tetrahydro-1H-cyclopropa[3,4]cyclopenta[1,2-c]pyrazol-1-yl)acetamide]
- EC50 [1, 3]: 0.043 µM
- CC50 at 4 day [2]: > 1 µM

Compound: O=C(Cn1ccc(C2CC2)n1)N[C@@H](Cc1cc(F)cc(F)c1)c1nc2cc(-c3cc(F)ccc3F)ccc2c(=O)n1-c1ccc(S(=O)(=O)N2CCOCC2)cc1 [Example 19, (S)-2-(3-cyclopropyl-1H-pyrazol-1-yl)-N-(2-(3,5-difluorophenyl)-1-(7-(2,5-difluorophenyl)-3-(4-(morpholinosulfonyl)phenyl)-4-oxo-3,4-dihydroquinazolin-2-yl)ethyl)acetamide]
- EC50 [1, 3]: 0.0089 µM
- CC50 at 4 day [2]: > 1 µM

Compound: O=C(Cn1ccc(C2CC2)n1)N[C@@H](Cc1cc(F)cc(F)c1)c1nc2cc(-c3cccnc3)ccc2c(=O)n1-c1ccc(S(=O)(=O)N2CCOCC2)cc1 [Example 20, (S)-2-(3-cyclopropyl-1H-pyrazol-1-yl)-N-(2-(3,5-difluorophenyl)-1-(3-(4-(morpholinosulfonyl)phenyl)-4-oxo-7-(pyridin-3-yl)-3,4-dihydroquinazolin-2-yl)ethyl)acetamide]
- EC50 [1, 3]: 0.0037 µM
- CC50 at 4 day [2]: > 1 µM

Compound: O=C(Cn1nc(C(F)F)c2c1C(F)(F)[C@@H]1C[C@H]21)N[C@@H](Cc1cc(F)cc(F)c1)c1nc2cc(-c3ccc(F)cc3F)ccc2c(=O)n1-c1ccc(S(=O)(=O)N2CCOCC2)cc1 [Example 22, 2-((3bS,4aR)-3-(difluoromethyl)-5,5-difluoro-3b,4,4a,5-tetrahydro-1H-cyclopropa[3,4]cyclopenta[1,2-c]pyrazol-1-yl)-N-((S)-2-(3,5-difluorophenyl)-1-(7-(2,4-difluorophenyl)-3-(4-(morpholinosulfonyl)phenyl)-4-oxo-3,4-dihydroquinazolin-2-yl)ethyl)acetamide]
- EC50 [1, 3]: 0.0079 µM
- CC50 at 4 day [2]: > 1 µM

Compound: O=C(Cn1nc(C(F)F)c2c1C(F)(F)[C@@H]1C[C@H]21)N[C@@H](Cc1cc(F)cc(F)c1)c1nc2cc(-c3cccnc3)ccc2c(=O)n1-c1ccc(S(=O)(=O)N2CCOCC2)cc1 [Example 24, 2-((3bS,4aR)-3-(difluoromethyl)-5,5-difluoro-3b,4,4a,5-tetrahydro-1H-cyclopropa[3,4]cyclopenta[1,2-c]pyrazol-1-yl)-N-((S)-2-(3,5-difluorophenyl)-1-(3-(4-(morpholinosulfonyl)phenyl)-4-oxo-7-(pyridin-3-yl)-3,4-dihydroquinazolin-2-yl)ethyl)acetamide]
- EC50 [1, 3]: 0.0043 µM
- CC50 at 4 day [2]: > 1 µM

Compound: O=C(Cn1nc(C(F)F)c2c1C(F)(F)[C@H]1C[C@@H]21)N[C@@H](Cc1cc(F)cc(F)c1)c1nc2cc(-c3ncccn3)ccc2c(=O)n1-c1ccc(S(=O)(=O)N2CCOCC2)cc1 [Example 27, 2-((3bR,4aS)-3-(difluoromethyl)-5,5-difluoro-3b,4,4a,5-tetrahydro-1H-cyclopropa[3,4]cyclopenta[1,2-c]pyrazol-1-yl)-N-((S)-2-(3,5-difluorophenyl)-1-(3-(4-(morpholinosulfonyl)phenyl)-4-oxo-7-(pyrimidin-2-yl)-3,4-dihydroquinazolin-2-yl)ethyl)acetamide]
- EC50 [1, 3]: 0.0058 µM
- CC50 at 4 day [2]: > 1 µM

Compound: O=C(Cn1nc(C(F)F)c2c1C(F)(F)[C@@H]1C[C@H]21)N[C@@H](Cc1cc(F)cc(F)c1)c1nc2cc(-c3cc(F)ccc3F)ccc2c(=O)n1-c1ccc(S(=O)(=O)N2CCOCC2)cc1 [Example 29, 2-((3bS,4aR)-3-(difluoromethyl)-5,5-difluoro-3b,4,4a,5-tetrahydro-1H-cyclopropa[3,4]cyclopenta[1,2-c]pyrazol-1-yl)-N-((S)-2-(3,5-difluorophenyl)-1-(7-(2,5-difluorophenyl)-3-(4-(morpholinosulfonyl)phenyl)-4-oxo-3,4-dihydroquinazolin-2-yl)ethyl)acetamide]
- EC50 [1, 3]: 0.0029 µM
- CC50 at 4 day [2]: > 1 µM

Compound: COc1ccc(-c2ccc3c(=O)n(-c4ccc(S(=O)(=O)N5CCOCC5)cc4)c([C@H](Cc4cc(F)cc(F)c4)NC(=O)Cn4ccc(C5CC5)n4)nc3c2)cn1 [Example 32, (S)-2-(3-cyclopropyl-1H-pyrazol-1-yl)-N-(2-(3,5-difluorophenyl)-1-(7-(6-methoxypyridin-3-yl)-3-(4-(morpholinosulfonyl)phenyl)-4-oxo-3,4-dihydroquinazolin-2-yl)ethyl)acetamide]
- EC50 [1, 3]: 0.0058 µM
- CC50 at 4 day [2]: > 1 µM

Compound: O=C(Cn1ccc(C2CC2)n1)N[C@@H](Cc1cc(F)cc(F)c1)c1nc2cc(-c3c(F)cccc3F)ccc2c(=O)n1-c1ccc(S(=O)(=O)N2CCOCC2)cc1 [Example 37, (S)-2-(3-cyclopropyl-1H-pyrazol-1-yl)-N-(2-(3,5-difluorophenyl)-1-(7-(2,6-difluorophenyl)-3-(4-(morpholinosulfonyl)phenyl)-4-oxo-3,4-dihydroquinazolin-2-yl)ethyl)acetamide]
- EC50 [1, 3]: 0.0088 µM
- CC50 at 4 day [2]: > 1 µM

Compound: O=C(Cn1ccc(C2CC2)n1)N[C@@H](Cc1cc(F)cc(F)c1)c1nc2cc(-c3ccccc3Oc3ccccc3)ccc2c(=O)n1-c1ccc(S(=O)(=O)N2CCOCC2)cc1 [Example 42, (S)-2-(3-cyclopropyl-1H-pyrazol-1-yl)-N-(2-(3,5-difluorophenyl)-1-(3-(4-(morpholinosulfonyl)phenyl)-4-oxo-7-(2-phenoxyphenyl)-3,4-dihydroquinazolin-2-yl)ethyl)acetamide]
- EC50 [1, 3]: 0.054 µM
- CC50 at 4 day [2]: > 1 µM
